# Experimental data taken from US20170340584A1 (priority 2014, published 2017).
# Where “and” joins values, the source holds several entries; their conditions need not be identical. Equal values may be shown once.
# What was measured:
# [1] = Body weight and body weight gain of high-fat diet mice; assay type: in vivo, mice (C57BL/6); conditions: for Body weight gain, Mean / Body weight, Mean: sample in drinking water, metformin 250 mg/kg
# Method: (§1) Using 8-week-old male mice (C57BL/6) (purchased from CoreTech), anti-diabetic candidate materials were evaluated using a GTT (Glucose Tolerance Test) that is a typical method for diagnosis of diabetes.
# (§2) Mice were housed at a temperature of 22±2° C. and a relative humidity of 55-60% with 12-hr light/12-hr dark cycles. Five animals were allotted to each group, and mice from the same mother were grouped into one group, because male mice tend to fight together.
# (§3) As feed, high-fat diet (60% of calories from fat; Research Diet Inc., New Brunswick, N.J.) and water were fed ad libitum for 10 weeks. Herein, the water fed contained the samples prepared in Examples 1-2 (3), 2-1, 2-4-1, 2-4-2 and 2-5. As a positive control, metformin (M-072, Sigma) (250 mg/kg) was used, and as a control, the samples prepared in Comparative Examples 1-1, 2-3-2, 2-5-1, 2-5-2 and 2-6 were used.
# (§4) For reference, each of the samples prepared in Examples 2-4-1, 2-4-2 and 2-5 was set to the amount to be taken by an adult (60 kg) for 3 days, and the amount was converted into a mouse dose (12-fold/kg, see the US NIH guidance), thereby preparing animal feed. Namely, the amount to be taken by an adult (60 kg) for 3 days is 180-day dose/kg, which corresponds to 15-day dose/kg for mice. Thus, the amount corresponds to 750-day dose/mouse (20 g), because the average weight of mice is about 20 g. Thus, one mouse was allowed to take 1/750 of the prepared sample each day.
# (§5) In addition, each of the samples prepared in Examples 1-2 (3) and 2-1 was set to the amount to be taken by an adult (60 kg) for 2 days, and the amount was converted into a mouse dose (12-fold/kg, see the US NIH guidance), thereby preparing animal feed. Namely, the amount to be taken by an adult (60 kg) for 2 days is 120-day dose/kg, which corresponds to 10-day dose/kg for mice. Thus, the amount corresponds to 500-day dose/mouse (20 g), because the average weight of mice is about 20 g. Thus, one mouse was allowed to take 1/500 of the prepared sample each day.
# The diet intake and the body weight gain were measured weekly for 8 weeks. The body weight and the diet intake were measured immediately before first drug administration, and then measured at one-week intervals.
# (§6) Meanwhile, experimental analysis results were expressed as mean±S.E.M., and the significance between test groups was statistically processed using Student T-TEST, and then the significance was verified at *P<0.05.
# [2] = Glucose tolerance test (GTT) in high-fat diet mice; assay type: in vivo, mice (C57BL/6); conditions: for Glucose level (mg/dl), Mean: GTT, high-fat diet mice
# Method: as §1, §2, §3, §4, §5
# At 8 weeks of high-fat diet feeding, a glucose tolerance test (GTT) was performed. For 8 hours for the test, mice were fasted. Then, blood was sampled from the tail vein, and initial blood glucose levels were measured with a blood glucose meter (AUTO-CHEK, Diatech Korea). Then, glucose was administered intraperitoneally to the mice at a concentration of 1 g/kg, and after 30 min, 60 min, 90 min and 120 min, blood was sampled from the mice, followed by measurement of blood glucose levels (each group consisting of five animals).
# as §6
# [3] = Blood biochemistry (triglyceride, AST, ALT) in high-fat diet mice; assay type: in vivo, mice (C57BL/6); conditions: blood
# Method: as §1, §3
# In blood biochemistry, insulin (AKRIN-011T, Shibayagi, Japan), glucose (AM202, Asan Pharmaceutical Co., Ltd., Korea), triglyceride (AM157, Asan Pharmaceutical Co., Ltd.), total cholesterol (AM202, Asan Pharmaceutical Co., Ltd.), AST and ALT (Asan Pharmaceutical Co., Ltd.) were analyzed using enzymatic assay kits.
# At 10 weeks of high-fat diet feeding, the mice were sacrificed by cervical dislocation to obtain serum. For histological examination, the liver, white adipose tissue (WAT), brown adipose tissue (BAT) and kidney were fixed with formalin (50-00-0, Junsei, Japan), and the remaining organs were stored at −70° C. The blood sampled from the heart was coagulated to obtain serum which was then stored at −70° C.
# as §6
# [4] = Scanning electron microscope (SEM) analysis, particle size; assay type: physicochemical
# Description: For reference, an analysis instrument and analysis conditions are as follows. (1) Analysis instrument: HITACHI (S-2700), Japan (2) Electron gun: Tungsten filament type (3) Resolution: 4.0 nm (4) Accelerating voltage: 15.0 kV.
# [5] = Thermogravimetric analysis (TGA); assay type: physicochemical; conditions: first-order differentiation of TGA; N2, 20° C./min
# Method: For reference, an analysis instrument and analysis conditions are as follows. (1) Analysis instrument: TGA 7 (Perkin-Elmer) (2) Atmosphere: N2 gas (3) Heating rate: 20° C./min (4) Range: 50 to 600° C.
# [6] = system: plasma; assay: Anticoagulant activity: prothrombin time (PT); assay type: biochemical, human; conditions: 20 μl sample + 80 μl plasma, test material g/dL (Asp 7.5 mg/Ml)
# Method: (§7) Antithrombotic (anticoagulant) activity was evaluated according to a previously reported method. Each of thromborel S, actin and thrombin, which are reagents for Sysmex CA-1500 for analysis of PT, aPTT and TT, was mounted in Sysmex CA-1500 (Siemens Healthcare, Germany) which is an automated blood coagulation test device. According to the automated procedure of the test device, clotting time (sec) (prothrombin time (PT), activated partial thromboplastin time (aPTT) and thrombin time (TT)) was measured. A sufficient amount of a sample for each of the three analyses was about 400 uL of an 80:20 mixture of plasma and a test substance.
# (§8) The isolated plasma was used in an experiment in a fresh state within 5-6 hours.
# (§9) In this experiment, for the relative comparison of the measured clotting time (sec) (PT, aPTT and TT) between test groups, clotting time prolongation (%) relative to triple distilled water (purified water) that is a normal control test sample was statistically analyzed. For statistical analysis, the […] anticoagulant activities of test materials were comparatively analyzed using SPSS IBM version 21.0 by one-way ANOVA at p<0.05, and significance comparison between groups was performed by Duncan's test.
# (§10) The aspirin solution was immediately used at room temperature in a light-shielded state or was cold-stored.
# (§11) As a control, aspirin was used, and as a vehicle control, triple distilled water (purified water) was used instead of the sample.
# [7] = system: plasma; assay: Anticoagulant activity: activated partial thromboplastin time (aPTT); assay type: biochemical, human; conditions: 20 μl sample + 80 μl plasma, test material g/dL (Asp 7.5 mg/Ml)
# Method: as §7, §8, §9, §10, §11
# [8] = system: plasma; assay: Anticoagulant activity: thrombin time (TT); assay type: biochemical, human; conditions: 20 μl sample + 80 μl plasma, test material g/dL (Asp 7.5 mg/Ml)
# Method: as §7, §8, §9, §10, §11
compound,measurement,setting,value
"NCCS(=O)(=O)O [DT19, taurine]","Body weight gain, Mean",[1]; 1 week,2.20 g
same,"Body weight, Mean",[1]; 1 week,21.46 g
same,"Body weight gain, Mean",[1]; 2 weeks,4.36 g
same,"Body weight, Mean",[1]; 2 weeks,23.62 g
same,"Body weight gain, Mean",[1]; 3 weeks,5.34 g
same,"Body weight, Mean",[1]; 3 weeks,24.60 g
same,"Body weight gain, Mean",[1]; 4 weeks,6.52 g
same,"Body weight, Mean",[1]; 4 weeks,25.78 g
same,"Body weight gain, Mean",[1]; 5 weeks,8.12 g
same,"Body weight, Mean",[1]; 5 weeks,27.38 g
same,"Body weight gain, Mean",[1]; 6 weeks,7.94 g
same,"Body weight, Mean",[1]; 6 weeks,27.20 g
same,"Body weight gain, Mean",[1]; 7 weeks,8.80 g
same,"Body weight, Mean",[1]; 7 weeks,28.06 g
same,"Body weight, Mean",[1]; 8 weeks,28.78 g
same,"Body weight, Mean",[1]; before administration,19.26 g
same,"Glucose level (mg/dl), Mean",[2]; 0 min,111.80 mg/dL
same,"Glucose level (mg/dl), Mean",[2]; 30 min,298.00 mg/dL
same,"Glucose level (mg/dl), Mean",[2]; 60 min,295.60 mg/dL
same,"Glucose level (mg/dl), Mean",[2]; 90 min,189.40 mg/dL
same,"Glucose level (mg/dl), Mean",[2]; 120 min,119.00 mg/dL
same,Fasting glucose level,"[2]; at 8 weeks of high-fat diet feeding, 8 hours fasted","lower than that of the mice administered with high-fat diet (HFD), and were similar to the blood glucose levels of normal mice"
same,Glucose control ability in GTT,"[2]; at 8 weeks of high-fat diet feeding, glucose 1 g/kg intraperitoneally, 30-120 min",significantly higher than that of the group administered with HFD alone
same,"ALT level (IU/L), Mean",[3],25.47 IU/L
same,"AST level (IU/L), Mean",[3],118.63 IU/L
same,"Triglyceride level (mg/dl), Mean",[3],116.20 mg/dL
same,Average particle size,[4],222.06 μm
same,Median particle size,[4],192.92 μm
same,Final decomposition temperature,[5],394 °C
same,First decomposition temperature,[5],362 °C
"CN(C)C(=N)N=C(N)N [Metformin, metformin]","Body weight (g), Mean",[1]; 1 week,23.550 g and 25.094 g
same,"Body weight gain, Mean",[1]; 1 week,1.70 g
same,"Body weight, Mean",[1]; 1 week,21.00 g
same,"Body weight (g), Mean",[1]; 2 weeks,23.608 g and 26.344 g
same,"Body weight gain (g), Mean",[1]; 2 weeks,2.503 g and 2.406 g
same,"Body weight gain, Mean",[1]; 2 weeks,3.48 g
same,"Body weight, Mean",[1]; 2 weeks,22.78 g
same,"Body weight (g), Mean",[1]; 3 weeks,25.125 g and 27.430 g
same,"Body weight gain (g), Mean",[1]; 3 weeks,4.020 g and 3.492 g
same,"Body weight gain, Mean",[1]; 3 weeks,4.54 g
same,"Body weight, Mean",[1]; 3 weeks,23.84 g
same,"Body weight (g), Mean",[1]; 4 weeks,25.705 g and 27.708 g
same,"Body weight gain (g), Mean",[1]; 4 weeks,4.600 g and 3.770 g
same,"Body weight gain, Mean",[1]; 4 weeks,5.88 g
same,"Body weight, Mean",[1]; 4 weeks,25.18 g
same,"Body weight (g), Mean",[1]; 5 weeks,27.198 g and 28.572 g
same,"Body weight gain (g), Mean",[1]; 5 weeks,6.093 g and 4.634 g
same,"Body weight gain, Mean",[1]; 5 weeks,6.42 g
same,"Body weight, Mean",[1]; 5 weeks,25.72 g
same,"Body weight (g), Mean",[1]; 6 weeks,28.355 g and 28.772 g
same,"Body weight gain (g), Mean",[1]; 6 weeks,7.250 g and 4.834 g
same,"Body weight gain, Mean",[1]; 6 weeks,7.04 g
same,"Body weight, Mean",[1]; 6 weeks,26.34 g
same,"Body weight (g), Mean",[1]; 7 weeks,27.368 g and 28.468 g
same,"Body weight gain (g), Mean",[1]; 7 weeks,6.263 g and 4.530 g
same,"Body weight gain, Mean",[1]; 7 weeks,8.22 g
same,"Body weight, Mean",[1]; 7 weeks,27.52 g
same,"Body weight (g), Mean",[1]; 8 weeks,29.343 g and 27.608 g
same,"Body weight gain, Mean",[1]; 8 weeks,8.90 g
same,"Body weight, Mean",[1]; 8 weeks,28.20 g
same,"Body weight (g), Mean",[1]; before administration,21.105 g and 23.938 g
same,"Body weight, Mean",[1]; before administration,19.30 g
same,"Glucose level (mg/dl), Mean",[2]; 0 min,144.20 mg/dL and 104.40 mg/dL
same,"Glucose level (mg/dl), Mean",[2]; 30 min,386.40 mg/dL and 438.40 mg/dL
same,"Glucose level (mg/dl), Mean",[2]; 60 min,301.40 mg/dL and 296.40 mg/dL
same,"Glucose level (mg/dl), Mean",[2]; 90 min,194.40 mg/dL and 178.00 mg/dL
same,"Glucose level (mg/dl), Mean",[2]; 120 min,135.20 mg/dL and 146.20 mg/dL
same,"Triglyceride level (mg/dl), Mean",[3],62.99 mg/dL
"O=C(CO)[C@@H](O)[C@H](O)[C@H](O)CO [Fruc 12.4, fructose]","PT, clotting time prolongation relative to purified water, Mean",[6]; Table 4,0.54%
same,"aPTT, clotting time prolongation relative to purified water, Mean",[7]; Table 4,0.58%
same,"TT, clotting time prolongation relative to purified water, Mean",[8]; Table 4,30.07%
"O=C(CO)[C@@H](O)[C@H](O)[C@H](O)CO [Fruc 6.2, fructose]","PT, clotting time prolongation relative to purified water, Mean",[6]; Table 4,0.54%
same,"aPTT, clotting time prolongation relative to purified water, Mean",[7]; Table 4,−0.20%
same,"TT, clotting time prolongation relative to purified water, Mean",[8]; Table 4,13.19%
"CC(=O)Oc1ccccc1C(=O)O [Asp, aspirin]","PT, clotting time prolongation relative to purified water, Mean",[6]; Table 2,9.90%
same,"PT, clotting time prolongation relative to purified water, Mean",[6]; Table 3,17.51%
same,"PT, clotting time prolongation relative to purified water, Mean",[6]; Table 4,26.02%
same,"aPTT, clotting time prolongation relative to purified water, Mean",[7]; Table 2,7.31%
same,"aPTT, clotting time prolongation relative to purified water, Mean",[7]; Table 3,16.28%
same,"aPTT, clotting time prolongation relative to purified water, Mean",[7]; Table 4,29.82%
same,"TT, clotting time prolongation relative to purified water, Mean",[8]; Table 2,13.59%
same,"*TT, clotting time prolongation relative to purified water, Mean","[8]; Table 3, values excluding one sample showing an extreme value",20.96%
same,"TT, clotting time prolongation relative to purified water, Mean",[8]; Table 4,23.95%
